In patent US20250034136A1 (Nimbus Wadjet, Inc., priority 2023, published 2025):

Key:
[1] = system: p21 induction in HCT116 cells; experiment: p21 induction in HCT116 cells; assay type: cell-based; settings: Homo sapiens, HCT-116, 24 h, HCT116 cells, 24 h compound incubation; read-out: P21_EC50
How it was run: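 EC50 from non-linear curve fit of p21 immunofluorescence (800 nm), with GAPDH (700 nm) read alongside. DMSO and a reference WRN inhibitor served as low and high controls. Cells (2,000/well) got 11 compound concentrations in duplicate for 24 h at 37 °C.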

[2] = target: WRN (BV08), human Werner helicase (Uniprot Q14191, amino acids 517-1235 with L1074F point mutation) (Homo sapiens (Human), UniProt Q14191, L1074F); experiment: WRN (BV08) ADP-Glo assay; assay type: biochemical; settings: class symbols A-E, read-out: ADP-Glo_hWRN_IC50
WRN (BV08), human Werner helicase (Uniprot Q14191, amino acids 517-1235 with L1074F point mutation), sequence (Q14191 other isoform, or with tags, fused parts or gaps L1074F (already in the parent)): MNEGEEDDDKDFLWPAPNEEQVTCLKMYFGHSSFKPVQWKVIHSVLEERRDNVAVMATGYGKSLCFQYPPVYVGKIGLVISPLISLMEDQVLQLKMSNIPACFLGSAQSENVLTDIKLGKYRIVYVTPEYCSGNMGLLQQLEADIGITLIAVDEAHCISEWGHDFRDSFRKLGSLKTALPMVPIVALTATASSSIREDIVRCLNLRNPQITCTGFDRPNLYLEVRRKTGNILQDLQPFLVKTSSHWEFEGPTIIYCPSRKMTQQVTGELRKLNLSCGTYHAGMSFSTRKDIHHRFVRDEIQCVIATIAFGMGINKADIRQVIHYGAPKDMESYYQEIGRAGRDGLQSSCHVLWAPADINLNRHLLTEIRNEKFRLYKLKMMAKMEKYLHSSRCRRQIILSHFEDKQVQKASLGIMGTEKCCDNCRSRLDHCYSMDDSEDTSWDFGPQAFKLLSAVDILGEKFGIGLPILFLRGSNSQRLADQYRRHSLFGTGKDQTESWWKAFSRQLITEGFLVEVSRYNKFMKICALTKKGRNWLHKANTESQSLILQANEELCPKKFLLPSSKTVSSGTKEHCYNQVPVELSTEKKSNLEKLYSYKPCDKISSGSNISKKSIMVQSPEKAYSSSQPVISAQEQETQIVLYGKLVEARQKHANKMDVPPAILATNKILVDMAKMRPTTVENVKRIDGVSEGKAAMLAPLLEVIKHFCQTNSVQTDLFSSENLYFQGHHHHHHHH

EC50 [1] [µM] | IC50 [2] [µM] | Compound
< 0.5 | 0.005 to 0.05 | CCc1c(N2CCN(C(=O)c3c(OC(F)F)ncc(C)c3O)[C@H]3CC[C@@H]32)c(=O)c2nc(N(C)C)cnc2n1CC(=O)Nc1ccc(C(F)(F)F)cc1Cl [I-281, N-[2-chloro-4-(trifluoromethyl)phenyl]-2-{7-[(1S,6S)-5-[2-(difluoromethoxy)-4-hydroxy-5-methylpyridine-3-carbonyl]-2,5-diazabicyclo[4.2.0]octan-2-yl]-2-(dimethylamino)-6-ethyl-8-oxo-5H,8H-pyrido[2,3-b]pyrazin-5-yl}acetamide]
< 0.5 | 0.005 to 0.05 | CCc1c(N2CCN(C(=O)c3c(OCCOC)ncc(C)c3O)[C@H]3CC[C@@H]32)c(=O)c2nc(N(C)C)cnc2n1CC(=O)Nc1ccc(C(F)(F)F)cc1Cl [I-282, N-[2-chloro-4-(trifluoromethyl)phenyl]-2-[2-(dimethylamino)-6-ethyl-7-[(1S,6S)-5-[4-hydroxy-2-(2-methoxyethoxy)-5-methylpyridine-3-carbonyl]-2,5-diazabicyclo[4.2.0]octan-2-yl]-8-oxo-5H,8H-pyrido[2,3-b]pyrazin-5-yl]acetamide]
< 0.5 | ≤ 0.005 | CCc1c(N2CCN(C(=O)c3ncnc(C)c3O)[C@H]3CC[C@@H]32)c(=O)c2nc(-c3ccnc(OC)c3)cnc2n1CC(=O)Nc1ccc(C(F)(F)F)cc1Cl [I-283, N-[2-chloro-4-(trifluoromethyl)phenyl]-2-{6-ethyl-7-[(1S,6S)-5-(5-hydroxy-6-methylpyrimidine-4-carbonyl)-2,5-diazabicyclo[4.2.0]octan-2-yl]-2-(2-methoxypyridin-4-yl)-8-oxo-5H,8H-pyrido[2,3-b]pyrazin-5-yl}acetamide]
< 0.5 | 0.005 to 0.05 | CCc1c(N2CCN(C(=O)c3ncnc(C)c3O)[C@H]3CC[C@@H]32)c(=O)c2nc(C3=CCOCC3)cnc2n1CC(=O)Nc1ccc(C(F)(F)F)cc1Cl [I-284, N-[2-chloro-4-(trifluoromethyl)phenyl]-2-[2-(3,6-dihydro-2H-pyran-4-yl)-6-ethyl-7-[(1S,6S)-5-(5-hydroxy-6-methylpyrimidine-4-carbonyl)-2,5-diazabicyclo[4.2.0]octan-2-yl]-8-oxo-5H,8H-pyrido[2,3-b]pyrazin-5-yl]acetamide]
0.5 to 2 | 0.005 to 0.05 | CCc1c(N2CCN(C(=O)c3ncnc(C)c3O)[C@H]3CC[C@@H]32)c(=O)c2nc(CN3CCOCC3)cnc2n1CC(=O)Nc1ccc(C(F)(F)F)cc1Cl [I-285, N-[2-chloro-4-(trifluoromethyl)phenyl]-2-{6-ethyl-7-[(1S,6S)-5-(5-hydroxy-6-methylpyrimidine-4-carbonyl)-2,5-diazabicyclo[4.2.0]octan-2-yl]-2-[(morpholin-4-yl)methyl]-8-oxo-5H,8H-pyrido[2,3-b]pyrazin-5-yl}acetamide]
< 0.5 | 0.005 to 0.05 | CCc1c(N2CCN(C(=O)c3c(OC)ncc(C4CC4)c3O)[C@H]3CC[C@@H]32)c(=O)c2nc(N(C)C)cnc2n1CC(=O)Nc1ccc(C(F)(F)F)cc1Cl [I-286, N-[2-chloro-4-(trifluoromethyl)phenyl]-2-{7-[(1S,6S)-5-(5-cyclopropyl-4-hydroxy-2-methoxypyridine-3-carbonyl)-2,5-diazabicyclo[4.2.0]octan-2-yl]-2-(dimethylamino)-6-ethyl-8-oxo-5H,8H-pyrido[2,3-b]pyrazin-5-yl} acetamide]
< 0.5 | 0.005 to 0.05 | CCc1c(N2CCN(C(=O)c3c(OC)ncc(C4CCOC4)c3O)[C@H]3CC[C@@H]32)c(=O)c2nc(N(C)C)cnc2n1CC(=O)Nc1ccc(C(F)(F)F)cc1Cl (stereo partly drawn) [I-287, N-[2-chloro-4-(trifluoromethyl)phenyl]-2-[2-(dimethylamino)-6-ethyl-7-[(1S,6S)-5-[4-hydroxy-2-methoxy-5-(oxolan-3-yl)pyridine-3-carbonyl]-2,5-diazabicyclo[4.2.0]octan-2-yl]-8-oxo-5H,8H-pyrido[2,3-b]pyrazin-5-yl]acetamide]
< 0.5 | 0.005 to 0.05 | CCc1c(N2CCN(C(=O)c3ncnc(C)c3O)[C@H]3CC[C@@H]32)c(=O)c2nc(N(C)C3CCC(O)C3)cnc2n1CC(=O)Nc1ccc(C(F)(F)F)cc1Cl (stereo partly drawn) [I-288, N-[2-chloro-4-(trifluoromethyl)phenyl]-2-{6-ethyl-7-[(1S,6S)-5-(5-hydroxy-6-methylpyrimidine-4-carbonyl)-2,5-diazabicyclo[4.2.0]octan-2-yl]-2-[(3-hydroxycyclopentyl)(methyl)amino]-8-oxo-5H,8H-pyrido[2,3-b]pyrazin-5-yl}acetamide]
0.5 to 2 | 0.005 to 0.05 | CCc1c(N2CCN(C(=O)c3ncnc(C)c3O)[C@H]3CC[C@@H]32)c(=O)c2nc(N(C)C)cnc2n1CC(=O)Nc1ccc(OC)cc1Cl [I-289, N-(2-chloro-4-methoxyphenyl)-2-[2-(dimethylamino)-6-ethyl-7-[(1S,6S)-5-(5-hydroxy-6-methylpyrimidine-4-carbonyl)-2,5-diazabicyclo[4.2.0]octan-2-yl]-8-oxo-5H,8H-pyrido[2,3-b]pyrazin-5-yl]acetamide]
< 0.5 | 0.005 to 0.05 | CCc1c(N2CCN(C(=O)c3ncnc(C)c3O)[C@H]3CC[C@@H]32)c(=O)c2nc(N3CCC4(COC4)C3)cnc2n1CC(=O)Nc1ccc(C(F)(F)F)cc1Cl [I-290, N-[2-chloro-4-(trifluoromethyl)phenyl]-2-{6-ethyl-7-[(1S,6S)-5-(5-hydroxy-6-methylpyrimidine-4-carbonyl)-2,5-diazabicyclo[4.2.0]octan-2-yl]-2-{2-oxa-6-azaspiro[3.4]octan-6-yl}-8-oxo-5H,8H-pyrido[2,3-b]pyrazin-5-yl}acetamide]
> 5 | 0.005 to 0.05 | CCc1c(N2CCN(C(=O)c3c(OC)ncc(COC)c3O)[C@H]3CC[C@@H]32)c(=O)c2nc(N(C)C)cnc2n1CC(=O)Nc1ccc(C(F)(F)F)cc1Cl [I-292, N-[2-chloro-4-(trifluoromethyl)phenyl]-2-[2-(dimethylamino)-6-ethyl-7-[(1S,6S)-5-[4-hydroxy-2-methoxy-5-(methoxymethyl)pyridine-3-carbonyl]-2,5-diazabicyclo[4.2.0]octan-2-yl]-8-oxo-5H,8H-pyrido[2,3-b]pyrazin-5-yl]acetamide]
< 0.5 | 0.005 to 0.05 | CCc1c(N2CCN(C(=O)c3ncnc(C)c3O)[C@H]3CC[C@@H]32)c(=O)c2nc(N(C)C3CCC3O)cnc2n1CC(=O)Nc1ccc(C(F)(F)F)cc1Cl (stereo partly drawn) [I-293, N-[2-chloro-4-(trifluoromethyl)phenyl]-2-{6-ethyl-7-[(1S,6S)-5-(5-hydroxy-6-methylpyrimidine-4-carbonyl)-2,5-diazabicyclo[4.2.0]octan-2-yl]-2-[(2-hydroxycyclobutyl)(methyl)amino]-8-oxo-5H,8H-pyrido[2,3-b]pyrazin-5-yl}acetamide]
< 0.5 | 0.005 to 0.05 | CCc1c(N2CCN(C(=O)c3ncnc(C)c3O)[C@H]3CC[C@@H]32)c(=O)c2nc(N(C)[C@H]3CC[C@H](O)C3)cnc2n1CC(=O)Nc1ccc(C(F)(F)F)cc1Cl [I-299, N-[2-chloro-4-(trifluoromethyl)phenyl]-2-{6-ethyl-7-[(1S,6S)-5-(5-hydroxy-6-methylpyrimidine-4-carbonyl)-2,5-diazabicyclo[4.2.0]octan-2-yl]-2-{[(1S,3S)-3-hydroxycyclopentyl](methyl)amino}-8-oxo-5H,8H-pyrido[2,3-b]pyrazin-5-yl}acetamide]
